Reference: patent US6768019B2 (Cheil Jedang Corporation, priority 2001, dated 2004)

Legend:
[1] = biological target: T1, cyclooxygenase-1 (Mus musculus, UniProt P22437); assay: Inhibition of cyclooxygenase-1 in mouse peritoneal macrophages (PGE2 ELISA); format: cell-based
T1 construct: endogenous in cells; host or cells: primary mouse peritoneal macrophages (unstimulated)
T1 sequence (P22437 27-602): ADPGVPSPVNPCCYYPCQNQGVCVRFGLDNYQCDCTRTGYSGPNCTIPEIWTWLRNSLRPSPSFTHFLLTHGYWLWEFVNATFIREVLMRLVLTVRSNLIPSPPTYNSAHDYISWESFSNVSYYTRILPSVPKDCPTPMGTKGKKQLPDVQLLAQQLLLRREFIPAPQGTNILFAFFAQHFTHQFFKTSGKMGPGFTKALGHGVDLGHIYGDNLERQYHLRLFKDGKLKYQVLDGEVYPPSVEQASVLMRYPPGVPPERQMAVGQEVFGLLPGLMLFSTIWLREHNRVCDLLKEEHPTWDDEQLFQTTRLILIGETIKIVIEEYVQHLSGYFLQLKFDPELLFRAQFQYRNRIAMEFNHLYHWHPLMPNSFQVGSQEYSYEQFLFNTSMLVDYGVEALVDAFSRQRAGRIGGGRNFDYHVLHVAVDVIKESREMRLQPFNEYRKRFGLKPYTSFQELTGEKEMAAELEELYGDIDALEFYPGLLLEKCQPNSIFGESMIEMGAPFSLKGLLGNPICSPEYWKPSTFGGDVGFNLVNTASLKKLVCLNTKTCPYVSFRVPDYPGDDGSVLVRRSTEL
Protocol: First of all, the cyclooxygenase-1 was examined through the following procedure.
Peritoneal fluid in which macrophages were suspended was extracted from a mouse peritoneal cavity and centrifuged at 4° C., 1,000 rpm for 2 minutes. Then, the supernatant was removed, suspended with 20 ml of incomplete (no serum) RPMI medium [PC/SM (penicilin/streptomycin)] and again centrifuged under the same condition. […] Then, the cell number was calculated with the hemocytometer and adjusted to reach 1×10^6 cells/ml of cell concentration in the final cell suspension. 100 μl of the resulting suspension was transferred into each well of 96-well plate and left at 37° C. in 5% CO2 with the incubator for about 2 hours in order to attach macrophages. […] The resulting cell was cultivated in the incubator at 37° C. in 5% CO2 for about 12˜16 hours. Then, arachidonic acid was added, adjusting to 10 μM of a final concentration and incubated at 37° C. for more 10 minutes and the supernatant of the reacted solution (˜180 μl) was recovered to finish the reaction.

[2] = biological target: T2, cyclooxygenase-2 (Mus musculus, UniProt Q05769); assay: Inhibition of cyclooxygenase-2 in aspirin-pretreated, LPS-stimulated mouse peritoneal macrophages (PGE2 ELISA); format: cell-based
T2 construct: Peritoneal fluid suspended with macrophages was extracted from a mouse peritoneal cavity; endogenous in cells; host or cells: primary mouse peritoneal macrophages, pretreated with 500 uM aspirin and stimulated with 10 ug/ml LPS
T2 sequence (Q05769 18-604): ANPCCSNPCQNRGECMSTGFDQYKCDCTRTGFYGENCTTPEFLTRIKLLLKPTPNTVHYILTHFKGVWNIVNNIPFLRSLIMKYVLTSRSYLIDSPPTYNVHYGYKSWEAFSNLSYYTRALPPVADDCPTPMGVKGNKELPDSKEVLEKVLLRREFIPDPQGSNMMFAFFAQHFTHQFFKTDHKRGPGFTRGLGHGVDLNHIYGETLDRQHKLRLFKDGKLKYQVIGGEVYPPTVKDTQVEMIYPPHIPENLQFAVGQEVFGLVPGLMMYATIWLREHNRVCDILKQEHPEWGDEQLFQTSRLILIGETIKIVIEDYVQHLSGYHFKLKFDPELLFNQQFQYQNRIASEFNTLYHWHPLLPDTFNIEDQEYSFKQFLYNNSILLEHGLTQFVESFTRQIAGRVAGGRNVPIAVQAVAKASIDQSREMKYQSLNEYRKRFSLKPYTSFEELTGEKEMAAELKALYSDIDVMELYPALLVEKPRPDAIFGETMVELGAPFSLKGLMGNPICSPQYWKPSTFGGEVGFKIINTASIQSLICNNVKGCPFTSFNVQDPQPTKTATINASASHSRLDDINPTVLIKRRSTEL
Protocol: Second, the cyclooxygenase-2 was examined through the following procedure.
Peritoneal fluid suspended with macrophages was extracted from a mouse peritoneal cavity and centrifuged at 4° C., 1,000 rpm for 2 minutes. Then, the supernatant was removed, suspended using incomplete RPMI medium [PC/SM (penicilin/streptomycin)] and again centrifuged under the same condition. […] Then, the cell number was calculated with the hemocytometer and adjusted to reach 1×10^6 cells/ml of cell concentration in the final cell suspension. The resulting suspension was treated with aspirin, adjusting 500 μM of final concentration and transferred into each well of 96-well plate in 100 μl respectively. Again, it was left at 37° C. in 5% CO2 in the incubator for about 2 hours in order to attach macrophages. […] The resulting cell was cultivated in the incubator at 37° C. in 5% CO2 for about 12˜16 hours. Then, arachidonic acid was added, adjusting to 10 μM of a final concentration and incubated at 37° C. for more 10 minutes and the supernatant of the reacted solution (˜180 μl) was recovered to finish the reaction.

[3] = in words, versus comparative substance

Inhibitory effects of cyclooxygenase (COX), COX-1 ([1]; 3 μM) | Inhibitory effects of cyclooxygenase (COX), COX-1 ([1]; 10 μM) | Inhibitory effects of cyclooxygenase (COX), COX-1 ([1]; 30 μM) | Inhibitory effects of cyclooxygenase (COX), COX-2 ([2]; 30 nM) | Inhibitory effects of cyclooxygenase (COX), COX-2 ([2]; 100 nM) | Inhibitory effects of cyclooxygenase (COX), COX-2 ([2]; 300 nM) | selectivity of cyclooxygenase-2 ([2]; in words, COX-2 over COX-1) | SMILES | inhibition effect against cyclooxygenase-1 compared with comparative substance [1, 3] | inhibition effect against cyclooxygenase-2 compared with comparative substance [2, 3]
33.2 % inhibition | 40.7 % inhibition | 45.8 % inhibition | ˜0 % inhibition | ˜0 % inhibition | ˜0 % inhibition |  | CS(=O)(=O)c1ccc(/C=C2/C(=O)CCc3ccccc32)cc1 [Example 1, (E)-1-(4-methanesulfonyl-benzylidene)-3,4-dihydro-1H-naphthalene-2-one] |  | 
56.7 % inhibition | 68.7 % inhibition | 80.4 % inhibition | 15.7 % inhibition | 20.7 % inhibition | 22 % inhibition |  | CS(=O)(=O)c1ccc(C=C2/C(=N/O)CCc3ccccc32)cc1 [Example 2, (E)-1-(4-methanesulfonyl-benzylidene)-3,4-dihydro-1H-naphthalene-2-one oxime] |  | 
60.4 % inhibition | 64.4 % inhibition | 74.6 % inhibition | 50.1 % inhibition | 58.8 % inhibition | 70.2 % inhibition |  | CCO/N=C1\CCc2ccccc2C1=Cc1ccc(S(C)(=O)=O)cc1 [Example 3, (E)-1-(4-methanesulfonyl-benzylidene)-3,4-dihydro-1H-naphthalene-2-one O-ethyl Oxime] |  | 
60.3 % inhibition | 71.1 % inhibition | 80.1 % inhibition | 55.4 % inhibition | 69.9 % inhibition | 81.5 % inhibition |  | CO/N=C1\CCc2ccccc2C1=Cc1ccc(S(C)(=O)=O)cc1 [Example 4, (E)-1-(4-methanesulfonyl-benzylidene)-3,4-dihydro-1H-naphthalene-2-one O-methyl Oxime] |  | 
39.9 % inhibition | 47.1 % inhibition | 54.3 % inhibition | 51.2 % inhibition | 55.4 % inhibition | 61.4 % inhibition |  | CS(=O)(=O)c1ccc(C=C2/C(=N/OCc3ccccc3)CCc3ccccc32)cc1 [Example 5, (E)-1-(4-methanesulfonyl-benzylidene)-3,4-dihydro-1H-naphthalene-2-one O-benzyl Oxime] |  | 
52.3 % inhibition | 57.3 % inhibition | 64.8 % inhibition | 33.4 % inhibition | 46.6 % inhibition | 54.9 % inhibition |  | CS(=O)(=O)c1ccc(-c2[nH]nc3c2-c2ccccc2CC3)cc1 [Example 6, 1-(4-methanesulfonyl-phenyl)-4,5-dihydro-2H-benzo[e]indazole] |  | 
30 % inhibition | 44.1 % inhibition | 56.4 % inhibition | 59.8 % inhibition | 70.6 % inhibition | 76.8 % inhibition | better than any other substances | CS(=O)(=O)c1ccc(-c2onc3c2-c2ccccc2CC3)cc1 [Example 7, 1-(4-methanesulfonyl-phenyl)-4,5-dihydro-naphto[2,1-c]isooxazole] | much lower level than a comparative substance | more excellent than a comparative substance
7.6 % inhibition | 32.3 % inhibition | 53.9 % inhibition | 22.1 % inhibition | 28.6 % inhibition | 29.6 % inhibition |  | CC(=O)O/N=C1\CCc2ccccc2C1=Cc1ccc(S(C)(=O)=O)cc1 [Example 8, (E)-1-(4-methanesulfonyl-benzylidene)-3,4-dihydro-1H-naphthalene-2-one O-acetyl-oxime] |  | 
22.8 % inhibition | 31.1 % inhibition | 42.1 % inhibition | 20.4 % inhibition | 25.5 % inhibition | 30.1 % inhibition |  | CS(=O)(=O)c1ccc(C=C2/C(=N/OC(=O)COCc3ccccc3)CCc3ccccc32)cc1 [Example 9, (E)-1-(4-methanesulfonyl-benzylidene)-3,4-dihydro-1H-naphthalene-2-one O-benzyloxyacetyl-oxime] |  | 
49.8 % inhibition | 55.3 % inhibition | 61.5 % inhibition | 20.2 % inhibition | 31.8 % inhibition | 61.0 % inhibition |  | Cn1nc2c(c1-c1ccc(S(C)(=O)=O)cc1)-c1ccccc1CC2 [Example 10, 1-(4-methanesulfonyl-phenyl)-2-methyl-4,5-dihydro-2H-benzo[e]imidazole] |  | 
